Results published in patent publication US11953435B2, “Zinc-responsive fluorophores” (Northwestern University, priority 2019, dated 2024).

Experiments:
[1] = Photophysical properties in solvents of varied dielectric constants (water/acetonitrile); format: physicochemical
Method: Aqueous solutions were prepared by using de-ionized water with resistivity […], obtained using a Milli-Q water purification system. In order to properly compare the photophysical properties of ZincBY-2, ZincBY-3, and ZincBY-4 to ZincBY-1, the photophysical properties of ZincBY-1 we remeasured. […] Stock solutions of ZincBY-1, ZincBY-2, ZincBY-3, and ZincBY-4 were prepared at concentrations of 5 mM and stored at −20° C. in aliquots that were used immediately after thawing for each experiment. Unless otherwise stated, all spectroscopic methods were conducted in aqueous buffer containing 50 mM HEPES (pH 7.2) and 0.1 M KNO3. UV-visible spectra were acquired on a PerkinElmer Lambda 650 UV/Vis spectrophotometer using quartz cuvettes from Starna (1 cm path length, 10 cm path length used in extinction coefficient and quantum yield determination). Fluorescence spectra were acquired using a PerkinElmer LS 55 fluorescence spectrophotometer. For measurements containing zinc, 99.0% ZnNO3 hexahydrate (final concentration 5 μM) was used. For experiments analyzing apo probes, N,N,N′,N′-Tetrakis(2-pyridylmethyl)ethylenediamine (TPEN) (final concentration 5 μM) was added to solution. Quantum Yield and Extinction Coefficient Determination. Quantum yields for apo and holo ZincBY-1, ZincBY-2, ZincBY-3, and ZincBY-4 were determined by plotting absorbance vs. fluorescence intensity of solutions containing ZincBY-1, ZincBY-2, ZincBY-3, or ZincBY-4 at probe concentrations ranging from 50-250 nM. […] Fluorescein dissolved in 0.1 N NaOH was used as the quantum yield standard, using a literature-determined quantum yield of 0.95.^3 For all fluorophore solutions, fluorescence excitation was set at 490 nm and fluorescence emission was integrated from 510 nm to 650 nm. […] Fluorescence spectra were recorded using zinc probes (ZincBY-1, ZincBY-2, ZincBY-3, or ZincBY-4; 200 nM) and ZnSO4 (various concentrations). […] Free Zn^2+ was calculated according to a previously reported method (Ref. B4; incorporated by reference in its entirety). […] The fluorescence spectra of zinc probes (ZincBY-2, ZincBY-3, or ZincBY-4; 200 nM) wasere measured at various pH values (4.5-11). […] The fluorescence spectra of zinc probes (ZincBY-2, ZincBY-3, or ZincBY-4; 200 nM) were measured in the presence an excess of metal ion including 1 mM KNO3, 1 mM NaNO3, 1 mM CaSO4, 1 mM MgSO4, 15 μM MnSO4, 15 μM (NH4)2Fe(SO4)2, 15 μM NH4Fe(SO4)2, 15 μM CoSO4, 15 μM NiSO4, 15 μM CuSO4, 15 μM [Cu(CH3CN)4]PF6, 15 μM CdSO4, 15 μM Hg(NO3)2, 15 μM Pb(NO3)2, or 15 μM ZnSO4. The fluorescence spectra were compared to that of ZincBY-2 (200 nM), ZincBY-3 (200 nM), or ZincBY-4 (200 nM) in the presence of 10 μM TPEN. […] A log P value for each probe was determined by agitating nanomolar solutions of each probe in a 1:1 mixture of HEPES buffer and 1-octanol. […]

[2] = previously reported value; read-out: zinc dissociation constant (reported); cited from earlier work

SMILES | emission maximum wavelength as the dielectric constant decreases ([1]; apo) | fluorescence intensity as the dielectric constant changes ([1]; apo) | emission maximum wavelength as the dielectric constant decreases ([1]; holo) | fluorescence intensity as the dielectric constant changes ([1]; holo) | Kd [2]
CC(=O)NCCOc1ccc2n1[B-](F)(F)[N+]1=C(N(CCN(Cc3ccccn3)Cc3ccccn3)Cc3ccccn3)C=CC1=C2c1c(C)cc(C)cc1C [ZincBY-4, N-(2-((7-((2-(bis(pyridin-2-ylmethyl)amino)ethyl)(pyridin-2-ylmethyl)amino)-5,5-difluoro-10-mesityl-5H-5λ4,6λ4-dipyrrolo[1,2-c:2′,1′-f][1,3,2]diazaborinin-3-yl)oxy)ethyl)acetamide] | does not change | does change in response to dielectric constant | 575 nm | does not change as the dielectric constant changes | –
COc1ccc2n1[B-](F)(F)[N+]1=C(N(CCN(Cc3ccccn3)Cc3ccccn3)Cc3ccccn3)C=CC1=C2c1c(C)cc(C)cc1C [ZincBY-1, reference compound] | – | – | – | – | 2.6 nM
